Experimental data: patent publication US20220112479A1, “COMPOUNDS STABILIZING AMYLASES IN LIQUIDS” (BASF SE, priority 2018, published 2022)

How the values were obtained:
Format in all cases: biochemical
Savinase Ultra 16.0L = molecular target: T1, Savinase Ultra 16.0L (Lederbergia lenta, UniProt P29600); assay: protease storage stability in liquid formulation (Suc-AAPF-pNA substrate); settings: storage at 37° C.
T1 construct: purchased Sigma-Aldrich
T1 sequence (P29600 1-269): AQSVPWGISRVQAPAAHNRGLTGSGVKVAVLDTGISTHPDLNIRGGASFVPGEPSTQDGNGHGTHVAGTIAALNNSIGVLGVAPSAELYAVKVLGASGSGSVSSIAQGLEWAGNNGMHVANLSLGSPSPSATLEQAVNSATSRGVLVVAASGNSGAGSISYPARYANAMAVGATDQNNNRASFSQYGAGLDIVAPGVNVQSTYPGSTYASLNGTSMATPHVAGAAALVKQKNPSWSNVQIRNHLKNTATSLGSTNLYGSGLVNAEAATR
Procedure: Base test formulations were manufactured by making base formulations I to V by mixing the components according to Table 1.
Protease used: (S) Savinase Ultra 16.0L (CAS-No. 9014-01-1, EC-No. 232-752-2) was purchased from Sigma-Aldrich
The respective component (a) or comparative compound was added, if applicable, to the respective base formulation in amounts as indicated in Table 1.
The amount of protease as provided in Table 1 refers to active protein.
Water was added to accomplish the balance to 100.
Protease activity at certain points in time as indicated in Table 3 was be determined by employing Succinyl-Ala-Ala-Pro-Phe-p-nitroanilide (Suc-AAPF-pNA, short AAPF) as substrate. pNA is cleaved from the substrate molecule by proteolytic cleavage, resulting in release of yellow color of free pNA which was determined by measuring […]. Measurements were done at 20° C.
The proteolytic activity values provided in Table 3 were calculated referring to the value determined in the reference formulation at the time 0.
The nomenclature of formulations is as follows: the Roman number before the full stop characterizes the base formulation, the Arabian number the type of salt (A.#inventive salt (component (a)); B.# comparative compound). Zero (“0”): no salt, but diethylene glycol.

Amy1=Stainzyme = assay: amylase storage stability in liquid formulation (pNP release from Ethyliden-blocked-pNPG7); parameters: key: % of activity in reference formulation at time 0; settings: storage at 37° C.
Procedure: (§1) The storage stability of amylase was assessed at 37° C. Base test formulations were manufactured by making base formulations I to V by mixing the components according to Table 1. Amylases used: Amy1=Stainzyme, Amy2=Amplify, Amy3=Stainzyme Plus L (12L) The respective component (a) or comparative compound was added, if applicable, to the respective base formulation in amounts as indicated in Table 1. The amount of amylase as provided in Table 1 refers to active protein. Water was added to accomplish the balance to 100. […] Amylase activity at certain points in time as indicated in Table 2 was measured quantitatively by the release of the chromophore para-nitrophenol (pNP) from the substrate ([…]-blocked-pNPG7, Roche Applied Science 10880078103). The alpha-amylase degrades the substrate into smaller molecules and α-glucosidase (Roche Applied Science 11626329103), which is present in excess compared to the amylase, process these smaller products until pNP is released; the release of pNP, measured via an increase of absorption at 405 nm, is directly proportional to the amylase activity of the sample. Amylase standard: […] 120 L (Sigma 3403). […] The amylolytic activity values provided were calculated referring to the value determined in the reference formulation at the time 0. The nomenclature of formulations is as follows: the Roman number before the full stop characterizes the base formulation, the Arabian number the type of compound (A.# compound according to invention (component (a)); B.# comparative compound).

Amy2=Amplify = assay: as above; parameters: key: % of activity in reference formulation at time 0; settings: base formulation III., 1.5 wt % component (a), storage at 37° C.
Procedure: as §1

[1] = base formulation IV., 2.0 wt % component (a), 3 d
[2] = base formulation IV., 2.0 wt % component (a), 7 d
[3] = base formulation IV., 2.0 wt % component (a), 14 d
[4] = base formulation IV., 2.0 wt % component (a), 21 d
[5] = base formulation IV., 2.0 wt % component (a), 28 d
[6] = base formulation IV., 2.0 wt % component (a), 42 d
[7] = base formulation IV., 2.0 wt % component (a), T0
[8] = base formulation I., 1.5 wt % component (a), 3 d
[9] = base formulation I., 1.5 wt % component (a), 7 d
[10] = base formulation I., 1.5 wt % component (a), 14 d
[11] = base formulation I., 1.5 wt % component (a), 21 d
[12] = base formulation I., 1.5 wt % component (a), 28 d
[13] = base formulation I., 1.5 wt % component (a), 42 d
[14] = base formulation I., 1.5 wt % component (a), T0
[15] = base formulation III., 1.5 wt % component (a), 3 d
[16] = base formulation III., 1.5 wt % component (a), 7 d
[17] = base formulation III., 1.5 wt % component (a), 14 d
[18] = base formulation III., 1.5 wt % component (a), 21 d
[19] = base formulation III., 1.5 wt % component (a), 28 d
[20] = base formulation III., 1.5 wt % component (a), 42 d
[21] = base formulation III., 1.5 wt % component (a), T0

Compound: CCCCOC(=O)CC(O)(CC(=O)OCCCC)C(=O)OCCCC [A.3, Tributylcitrate]
- protease activity, referring to reference formulation at time 0 (Savinase Ultra 16.0L; [1]): 98
- protease activity, referring to reference formulation at time 0 (Savinase Ultra 16.0L; [2]): 90
- protease activity, referring to reference formulation at time 0 (Savinase Ultra 16.0L; [3]): 85
- protease activity, referring to reference formulation at time 0 (Savinase Ultra 16.0L; [4]): 78
- protease activity, referring to reference formulation at time 0 (Savinase Ultra 16.0L; [5]): 70
- protease activity, referring to reference formulation at time 0 (Savinase Ultra 16.0L; [6]): 67
- protease activity, referring to reference formulation at time 0 (Savinase Ultra 16.0L; [7]): 99
- amylase activity, referring to reference formulation at time 0 (Amy1=Stainzyme; [1]): 95
- amylase activity, referring to reference formulation at time 0 (Amy1=Stainzyme; [2]): 90
- amylase activity, referring to reference formulation at time 0 (Amy1=Stainzyme; [3]): 84
- amylase activity, referring to reference formulation at time 0 (Amy1=Stainzyme; [4]): 77
- amylase activity, referring to reference formulation at time 0 (Amy1=Stainzyme; [5]): 68
- amylase activity, referring to reference formulation at time 0 (Amy1=Stainzyme; [6]): 57
- amylase activity, referring to reference formulation at time 0 (Amy1=Stainzyme; [7]): 98

Compound: CCCCOC(=O)CC(CC(=O)OCCCC)(OC(C)=O)C(=O)OCCCC [A.4, Acetyltributylcitrate]
- protease activity, referring to reference formulation at time 0 (Savinase Ultra 16.0L; [8]): 100
- protease activity, referring to reference formulation at time 0 (Savinase Ultra 16.0L; [9]): 94
- protease activity, referring to reference formulation at time 0 (Savinase Ultra 16.0L; [10]): 90
- protease activity, referring to reference formulation at time 0 (Savinase Ultra 16.0L; [11]): 84
- protease activity, referring to reference formulation at time 0 (Savinase Ultra 16.0L; [12]): 82
- protease activity, referring to reference formulation at time 0 (Savinase Ultra 16.0L; [13]): 70
- protease activity, referring to reference formulation at time 0 (Savinase Ultra 16.0L; [14]): 102
- protease activity, referring to reference formulation at time 0 (Savinase Ultra 16.0L; base formulation II., 1.5 wt % component (a), 3 d): 100
- protease activity, referring to reference formulation at time 0 (Savinase Ultra 16.0L; base formulation II., 1.5 wt % component (a), 7 d): 95
- protease activity, referring to reference formulation at time 0 (Savinase Ultra 16.0L; base formulation II., 1.5 wt % component (a), 14 d): 90
- protease activity, referring to reference formulation at time 0 (Savinase Ultra 16.0L; base formulation II., 1.5 wt % component (a), 21 d): 85
- protease activity, referring to reference formulation at time 0 (Savinase Ultra 16.0L; base formulation II., 1.5 wt % component (a), 28 d): 81
- protease activity, referring to reference formulation at time 0 (Savinase Ultra 16.0L; base formulation II., 1.5 wt % component (a), 42 d): 70
- protease activity, referring to reference formulation at time 0 (Savinase Ultra 16.0L; base formulation II., 1.5 wt % component (a), T0): 102
- protease activity, referring to reference formulation at time 0 (Savinase Ultra 16.0L; [15]): 99
- protease activity, referring to reference formulation at time 0 (Savinase Ultra 16.0L; [16]): 95
- protease activity, referring to reference formulation at time 0 (Savinase Ultra 16.0L; [17]): 91
- protease activity, referring to reference formulation at time 0 (Savinase Ultra 16.0L; [18]): 86
- protease activity, referring to reference formulation at time 0 (Savinase Ultra 16.0L; [19]): 81
- protease activity, referring to reference formulation at time 0 (Savinase Ultra 16.0L; [20]): 70
- protease activity, referring to reference formulation at time 0 (Savinase Ultra 16.0L; [21]): 101
- protease activity, referring to reference formulation at time 0 (Savinase Ultra 16.0L; base formulation V., 2.0 wt % component (a), 3 d): 94
- protease activity, referring to reference formulation at time 0 (Savinase Ultra 16.0L; base formulation V., 2.0 wt % component (a), 7 d): 90
- protease activity, referring to reference formulation at time 0 (Savinase Ultra 16.0L; base formulation V., 2.0 wt % component (a), 14 d): 85
- protease activity, referring to reference formulation at time 0 (Savinase Ultra 16.0L; base formulation V., 2.0 wt % component (a), 21 d): 80
- protease activity, referring to reference formulation at time 0 (Savinase Ultra 16.0L; base formulation V., 2.0 wt % component (a), 28 d): 76
- protease activity, referring to reference formulation at time 0 (Savinase Ultra 16.0L; base formulation V., 2.0 wt % component (a), 42 d): 68
- protease activity, referring to reference formulation at time 0 (Savinase Ultra 16.0L; base formulation V., 2.0 wt % component (a), T0): 98

Compound: Monoethylcitrate [A.6]
- protease activity, referring to reference formulation at time 0 (Savinase Ultra 16.0L; [8]): 94
- protease activity, referring to reference formulation at time 0 (Savinase Ultra 16.0L; [9]): 90
- protease activity, referring to reference formulation at time 0 (Savinase Ultra 16.0L; [10]): 81
- protease activity, referring to reference formulation at time 0 (Savinase Ultra 16.0L; [11]): 73
- protease activity, referring to reference formulation at time 0 (Savinase Ultra 16.0L; [12]): 67
- protease activity, referring to reference formulation at time 0 (Savinase Ultra 16.0L; [13]): 56
- protease activity, referring to reference formulation at time 0 (Savinase Ultra 16.0L; [14]): 100
- protease activity, referring to reference formulation at time 0 (Savinase Ultra 16.0L; [15]): 94
- protease activity, referring to reference formulation at time 0 (Savinase Ultra 16.0L; [16]): 90
- protease activity, referring to reference formulation at time 0 (Savinase Ultra 16.0L; [17]): 84
- protease activity, referring to reference formulation at time 0 (Savinase Ultra 16.0L; [18]): 78
- protease activity, referring to reference formulation at time 0 (Savinase Ultra 16.0L; [19]): 70
- protease activity, referring to reference formulation at time 0 (Savinase Ultra 16.0L; [20]): 62
- protease activity, referring to reference formulation at time 0 (Savinase Ultra 16.0L; [21]): 100
- amylase activity, referring to reference formulation at time 0 (Amy2=Amplify; 3 d): 96
- amylase activity, referring to reference formulation at time 0 (Amy2=Amplify; 7 d): 90
- amylase activity, referring to reference formulation at time 0 (Amy2=Amplify; 14 d): 83
- amylase activity, referring to reference formulation at time 0 (Amy2=Amplify; 21 d): 74
- amylase activity, referring to reference formulation at time 0 (Amy2=Amplify; 28 d): 63
- amylase activity, referring to reference formulation at time 0 (Amy2=Amplify; 42 d): 49
- amylase activity, referring to reference formulation at time 0 (Amy2=Amplify; T0): 97
- amylase activity, referring to reference formulation at time 0 (Amy1=Stainzyme; [8]): 95
- amylase activity, referring to reference formulation at time 0 (Amy1=Stainzyme; [9]): 84
- amylase activity, referring to reference formulation at time 0 (Amy1=Stainzyme; [10]): 79
- amylase activity, referring to reference formulation at time 0 (Amy1=Stainzyme; [11]): 70
- amylase activity, referring to reference formulation at time 0 (Amy1=Stainzyme; [12]): 61
- amylase activity, referring to reference formulation at time 0 (Amy1=Stainzyme; [13]): 48
- amylase activity, referring to reference formulation at time 0 (Amy1=Stainzyme; [14]): 98
